Laboratory results published in PMC4105567, “Aurora Kinases as Druggable Targets in Pediatric Leukemia: Heterogeneity in Target Modulation Activities and Cytotoxicity by Diverse Novel Therapeutic Agents” (PLoS ONE, 2014).
Read-outs that look alike come from different tables or passages of the source.

Key:
Bone Marrow Stroma = experiment: Cytotoxicity assay, bone marrow stroma; type: cell-based, human; conditions: bone marrow stroma (control for non-leukemia cytotoxicity), four days in culture, ± SD, three experiments
Method: (§1) For cytotoxicity profiling of Aurora kinase inhibitors against leukemia cell lines, inhibitors or vehicle control (DMSO, Sigma-Aldrich) were diluted in 100 µl of Opti-MEM per well in 96 well plates (Grenier Bio-One, Monroe, North Carolina) in triplicate at final concentrations ranging from 1×10^−6 to 10 µM. 1×10^4 cells per well were seeded and plates were incubated for 4 days. Following incubation for 4 days, cell survival was quantified by Alamar blue assay (Invitrogen) or automated inverted microscopy using the Celigo Cell Cytometer (Cyntellect, San Diego, California). […] During this period of incubation, the absorbance at 570–620 nm was measured (Opsys MR Plate Reader, Dynex Technologies, Chantilly, Virginia) at various time points, depending on the cell line or sample. Percent survival was calculated by comparing the absorbance ratio of the test well to the control well multiplied by 100%, as indicated in the following formula: […]
(§2) For automated inverted microscopy, the number of cells in each well was determined using the direct cell counting application as described previously. Briefly, following adjustment of image acquisition settings for bright-field imaging, the wells containing cells and appropriate dilutions of inhibitors were individually scanned. Based on these images, analysis parameters, including intensity threshold and cell diameter, were modified for optimal inclusion of viable cells in treated and control wells. These parameters were applied for subsequent replicates involving the same leukemia cell line or sample. The percent survival was then calculated as a ratio of the number of cells in treated wells to the number of cells in control wells multiplied by 100%. Given that Aurora kinase inhibitors interfere with cytokinesis, cells that are committed to death may still contain enlarging but intact cytoplasmic content before the eventual loss of cytoplasmic membrane integrity. The accuracy of Alamar blue assay may be, in theory, affected by the timing of these events.

C1 B-ALL cell line = experiment: Cytotoxicity assay, C1; type: cell-based, human; conditions: four days in culture, Alamar blue assay or automated microscopy, ± SD, three experiments
Method: (§3) Cell lines were cultured in Opti-MEM medium (Gibco, Life Technologies Corporation, Burlington, Ontario) supplemented with 10% heat inactivated fetal bovine serum (FBS) (Gibco), 100 units/ml penicillin and 100 units/ml streptomycin (Gibco) and 0.05 mM 2-mercaptoethanol (Sigma-Aldrich, Oakville, Ontario) in T25 flasks (Nalge Nunc, Rochester, New York) or T75 flasks (Corning Incorporated, Corning, New York). All cell cultures were maintained at 37°C in a humidified incubator with 5% CO2.
as §1, §2

HL-60 RA APML cell line = experiment: Cytotoxicity assay, HL-60 RA; type: cell-based, human; conditions: APML cell line HL-60 RA, four days in culture, Alamar blue assay or automated microscopy, ± SD, three experiments
Method: as §3, §1, §2

SEM B-ALL cell line = experiment: Cytotoxicity assay, SEM; type: cell-based; conditions: Homo sapiens, 96 h, four days in culture, Alamar blue assay or automated microscopy, ± SD, three experiments
Method: as §3, §1, §2

Normal Lymphocytes = experiment: Cytotoxicity assay, normal lymphocytes; type: cell-based, human; conditions: normal lymphocytes (control for non-leukemia cytotoxicity), four days in culture, ± SD, three experiments
Method: (§4) These include B-ALL (Patient #1), relapsed AML (Patient #2), AML/CML (Patient #3), infant ALL (Patient #4), and initial ALL presenting with secondary AML (Patient #5). […] The diluted sample was then layered on a Ficoll-Paque (GE Healthcare, Piscataway, New Jersey) gradient at a 1∶2 ratio of Ficoll to diluted sample. Samples were then centrifuged 1800 rpm for 20 minutes at room temperature. The buffy coat was removed with a pipette and transferred to a new centrifuge tube and diluted with PBS. After an additional centrifugation at 1200 rpm, the white blood cell pellet was washed with PBS and centrifuged one last time. Cells were re-suspended in Opti-MEM and viable cells were counted using trypan blue (Invitrogen, Life Technologies Corporation, Burlington, Ontario) exclusion on a haemocytometer. An identical protocol was followed for the isolation of white blood cells, referred to as “normal lymphocytes” in the following paragraphs, from healthy volunteers. Samples grown in culture for up to six months were cultured in Opti-MEM medium supplemented with 10% heat inactivated FBS, penicillin/streptomycin and 2-mercaptoethanol.
as §1, §2

Nalm6 B-ALL cell line = experiment: Cytotoxicity assay, Nalm6; type: cell-based, human; conditions: four days in culture, Alamar blue assay or automated microscopy, ± SD, three experiments
Method: as §3, §1, §2

HL-60 APML cell line = experiment: Cytotoxicity assay, HL-60; type: cell-based, human; conditions: APML cell line HL-60, four days in culture, Alamar blue assay or automated microscopy, ± SD, three experiments
Method: as §3, §1, §2

[1] = system: Patient #2 relapsed AML primary leukemia cells; experiment: Cytotoxicity assay, primary sample Patient #2; type: cell-based, human; conditions: four days in culture, Alamar blue assay or automated microscopy, one complete study
Method: as §4, §1, §2

UOCB1 B-ALL cell line = experiment: Cytotoxicity assay, UOCB1; type: cell-based, human; conditions: four days in culture, Alamar blue assay or automated microscopy, ± SD, three experiments
Method: as §3, §1, §2

Molt-3 T-ALL cell line = experiment: Cytotoxicity assay, Molt-3; type: cell-based, human; conditions: T-ALL cell line Molt-3, four days in culture, Alamar blue assay or automated microscopy, ± SD, three experiments
Method: as §3, §1, §2

[2] = system: Patient #4 infant leukemia primary cells; experiment: Cytotoxicity assay, primary sample Patient #4; type: cell-based, human; conditions: four days in culture, Alamar blue assay or automated microscopy, one complete study
Method: as §4, §1, §2

[3] = system: Patient #5 ALL/AML primary leukemia cells; experiment: Cytotoxicity assay, primary sample Patient #5; type: cell-based, human; conditions: read-out: IC50, Patient #5 ALL/AML
Method: as §4, §1, §2

NB4 APML cell line = experiment: Cytotoxicity assay, NB4; type: cell-based, human; conditions: four days in culture, Alamar blue assay or automated microscopy, ± SD, three experiments
Method: as §3, §1, §2

[4] = system: Patient #3 AML/CML primary leukemia cells; experiment: Cytotoxicity assay, primary sample Patient #3; type: cell-based, human; conditions: four days in culture, Alamar blue assay or automated microscopy, one complete study
Method: as §4, §1, §2

[5] = system: Patient #1 B-ALL primary leukemia cells; experiment: Cytotoxicity assay, primary sample Patient #1; type: cell-based, human; conditions: four days in culture, Alamar blue assay or automated microscopy, one complete study
Method: as §4, §1, §2

KOPN8 B-ALL cell line = experiment: Cytotoxicity assay, KOPN8; type: cell-based, human; conditions: four days in culture, Alamar blue assay or automated microscopy, ± SD, three experiments
Method: as §3, §1, §2

B1 B-ALL cell line = experiment: Cytotoxicity assay, B1; type: cell-based, human; conditions: four days in culture, Alamar blue assay or automated microscopy, ± SD, three experiments
Method: as §3, §1, §2

Molm13 AML cell line = experiment: Cytotoxicity assay, Molm13; type: cell-based, human; conditions: four days in culture, Alamar blue assay or automated microscopy, ± SD, three experiments
Method: as §3, §1, §2

MV4-11 AML cell line = experiment: Cytotoxicity assay, MV4-11; type: cell-based, human; conditions: AML cell line MV4-11, four days in culture, Alamar blue assay or automated microscopy, ± SD, three experiments
Method: as §3, §1, §2

CEM T-ALL cell line = experiment: Cytotoxicity assay, CEM; type: cell-based, human; conditions: four days in culture, Alamar blue assay or automated microscopy, ± SD, three experiments
Method: as §3, §1, §2

TIB-202 AML cell line = experiment: Cytotoxicity assay, TIB-202; type: cell-based, human; conditions: AML cell line TIB-202, four days in culture, Alamar blue assay or automated microscopy, ± SD, three experiments
Method: as §3, §1, §2

[6] = system: normal cells versus leukemia cell lines; experiment: Comparison of cytotoxicity IC50 values, normal cells versus leukemia cell lines; type: cell-based, human; conditions: normal lymphocytes and bone marrow stroma versus leukemia cell lines of Table 2
Method: as §1, §2

Aurora-C = conditions: read-out: Targets (IC50 Value): Aurora-C; literature values; ref [10],[40],[44]–[64] as listed per inhibitor in Table 1; cited from earlier work

With `COc1cc(Nc2ncc3c(n2)-c2ccc(Cl)cc2C(c2c(F)cccc2OC)=NC3)ccc1C(=O)O` [MLN8237] the IC50 (Bone Marrow Stroma; Homo sapiens, 96 h) was > 10 µM, the IC50 (C1 B-ALL cell line; Homo sapiens, 96 h) was 3 ± 1 nM and the IC50 (HL-60 RA APML cell line; Homo sapiens, 96 h) was 4 ± 2 nM. For the same compound, the IC50 (SEM B-ALL cell line) was 4 ± 1 nM, the IC50 (Normal Lymphocytes; Homo sapiens, Lymphocyte, 96 h) was 5 ± 2 µM and the IC50 (Nalm6 B-ALL cell line; Homo sapiens, NALM-6, 96 h) was 6 ± 3 nM. The IC50 (HL-60 APML cell line; Homo sapiens, 96 h) was 9 ± 0.9 nM, the IC50 ([1]; Homo sapiens, 96 h) was 500 nM and the IC50 (UOCB1 B-ALL cell line; Homo sapiens, UoC-B1, 96 h) was 3 pM. The IC50 (Molt-3 T-ALL cell line; Homo sapiens, 96 h) was < 0.001 nM, the IC50 ([2]; Homo sapiens, 96 h) was 3 µM and the IC50 ([3]; Homo sapiens, 96 h, primary sample, four days in culture, Alamar blue assay or automated microscopy, one complete study) was 0.1 nM. It also gave an IC50 (NB4 APML cell line; Homo sapiens, 96 h) of 60 ± 8 nM, an IC50 ([4]; Homo sapiens, 96 h) of 0.7 µM and an IC50 ([5]; Homo sapiens, 96 h) of 6 nM. The IC50 (KOPN8 B-ALL cell line; Homo sapiens, KOPN-8, 96 h) was 5 ± 2 nM, the IC50 (B1 B-ALL cell line; Homo sapiens, 96 h) was 4 ± 3 nM and the IC50 (Molm13 AML cell line; Homo sapiens, MOLM-13, 96 h) was 4 ± 2 nM. For the same compound, the IC50 (MV4-11 AML cell line; Homo sapiens, 96 h) was 4 ± 1 nM, the IC50 (CEM T-ALL cell line; Homo sapiens, 96 h) was < 0.001 nM and the IC50 (TIB-202 AML cell line; Homo sapiens, 96 h) was 0.4 nM. The “IC50 values for the normal cells compared with IC50 values for the leukemia cell lines (potential therapeutic window)” value [6] was “higher than the IC50 values for the leukemia cell lines”.

For `O=C(Nc1cccc(Cl)c1)Nc1ncc(CCNc2ncnc3ccsc23)s1` [SNS-314], the IC50 (Bone Marrow Stroma; Homo sapiens, 96 h) was > 10 µM, the IC50 (C1 B-ALL cell line; Homo sapiens, 96 h) was < 0.001 nM and the IC50 (HL-60 RA APML cell line; Homo sapiens, 96 h) was < 0.001 nM. For the same compound, the IC50 (SEM B-ALL cell line) was < 0.001 nM, the IC50 (Normal Lymphocytes; Homo sapiens, Lymphocyte, 96 h) was 4 ± 2 µM and the IC50 (Nalm6 B-ALL cell line; Homo sapiens, NALM-6, 96 h) was < 0.001 nM. For the same compound, the IC50 (HL-60 APML cell line; Homo sapiens, 96 h) was 0.02 nM, the IC50 (Aurora-C) was 3 nM and the IC50 ([1]; Homo sapiens, 96 h) was 0.5 nM. The IC50 (UOCB1 B-ALL cell line; Homo sapiens, UoC-B1, 96 h) was < 1 pM, the IC50 (Molt-3 T-ALL cell line; Homo sapiens, 96 h) was < 0.001 nM and the IC50 ([2]; Homo sapiens, 96 h) was 8 µM. The IC50 ([3]; Homo sapiens, 96 h) was < 0.001 nM, the IC50 (NB4 APML cell line; Homo sapiens, 96 h) was 6 ± 4 nM and the IC50 ([4]; Homo sapiens, 96 h) was 4 µM. The IC50 ([5]; Homo sapiens, 96 h) was < 0.001 nM, the IC50 (KOPN8 B-ALL cell line; Homo sapiens, KOPN-8, 96 h) was < 0.001 nM and the IC50 (B1 B-ALL cell line; Homo sapiens, 96 h) was < 0.001 nM. For the same compound, the IC50 (Molm13 AML cell line; Homo sapiens, MOLM-13, 96 h) was < 0.001 nM, the IC50 (MV4-11 AML cell line; Homo sapiens, 96 h) was < 0.001 nM and the IC50 (CEM T-ALL cell line; Homo sapiens, 96 h) was < 0.001 nM. The IC50 (TIB-202 AML cell line; Homo sapiens, 96 h) was < 0.001 nM.

Compound `COc1cc2c(Nc3ccc(NC(=O)c4ccccc4)cc3)ncnc2cc1OCCCN1CCOCC1` [ZM447439] has an IC50 (Bone Marrow Stroma) of 2 ± 0.4 µM, an IC50 (C1 B-ALL cell line) of 80 ± 20 nM and an IC50 (HL-60 RA APML cell line) of 500 ± 300 nM. The IC50 (Normal Lymphocytes) was 6 ± 0.8 µM, the IC50 (Nalm6 B-ALL cell line) was 80 ± 4 nM and the IC50 (HL-60 APML cell line) was 1000 ± 100 nM. The IC50 [1] was > 10000 nM, the IC50 (UOCB1 B-ALL cell line) was 80000 ± 20000 pM and the IC50 (Molt-3 T-ALL cell line) was 90 ± 10 nM. The IC50 [2] was 7 µM, the IC50 ([3]; primary sample, four days in culture, Alamar blue assay or automated microscopy, one complete study) was 9 nM and the IC50 (NB4 APML cell line) was 4000 ± 2000 nM. It also gave an IC50 [4] of 10 µM, an IC50 [5] of 20 nM and an IC50 (KOPN8 B-ALL cell line) of 100 ± 70 nM. The IC50 (B1 B-ALL cell line) was 1000 ± 50 nM, the IC50 (Molm13 AML cell line) was 500 ± 300 nM and the IC50 (MV4-11 AML cell line) was 200 ± 100 nM. The IC50 (CEM T-ALL cell line) was 60 ± 30 nM, the IC50 (TIB-202 AML cell line) was 800 ± 100 nM and the “IC50 values for the normal cells compared with IC50 values for the leukemia cell lines (potential therapeutic window)” value [6] was “lower than the IC50 values for the normal cells, but not as pronounced”.
